Test results reported in patent publication US9663463B2, “3-azabicyclo[3.1.0]hexane derivative and use thereof for medical purpose” (priority 2013, dated 2017).
Where a name gives a salt, the structure may show the parent alone. Read-outs that look alike come from different tables or passages of the source.

Legend:
human μ-opioid receptor = human μ-opioid receptor (Homo sapiens (Human), UniProt P35372); assay: Antagonist activity test using [35S]-GTPγS bond as index using human μ-opioid receptor-expressing cell membrane; assay type: biochemical
Protocol: Cells in which a human μ-opioid receptor had been highly expressed was purchased from ChanTest (Cleveland). The cells were cultured in a carbon dioxide gas culturing apparatus by using a Ham's F12 culture medium (Invitrogen) containing 10% of fetal bovine blood serum, 1% of non-essential amino acids, 0.4 mg/ml of G418, 100 U/ml of penicillin and 100 μg/ml of streptomycin. The cultured cells were suspended by using a 0.25% trypsin 1 mM EDTA solution, the suspension was collected by using phosphate-buffered saline and centrifuged at 4° C. and 1,000 rpm for 10 minute to remove the supernatant, whereby a cell mass was obtained. […] Similar homogenization and centrifugation operations were repeated on the sediment, a homogenized buffer was added again to the obtained sediment, and the resultant was similarly homogenized to give a membrane fraction solution. The obtained membrane fraction solution was dispensed, rapidly frozen and stored under freezing at −70° C. or less until use. Furthermore, the protein concentration of the obtained membrane fraction solution was measured by using a BCA protein Assay Kit (Cat. 23227, Pierce) according to the protocol attached to the kit.
The cell membrane fraction solution in which the human μ-opioid receptor had expressed, which had been stored under freezing, was melted, a GTP assay buffer (100 mM NaCl, 5 mM MgCl2, 1 mM EDTA-containing 50 mM Hepes (pH 7.4)) was added thereto, and the resultant was homogenized repeatedly twice by using a Polytron homogenizer (SMT Multi Disperser PB95) under ice cooling at 12,000 rpm for 20 seconds to give a homogeneous solution, and the homogeneous solution was diluted to 0.036 mg/ml with a GTP assay buffer containing 18.2 μM of GDP (final concentration: […]). The dilution was incubated for 15 minutes or more under ice cooling until the reaction was initiated. […] [^35S]-GTPγS (NEG030X, Perkinelmer) was diluted with a GTP assay buffer so as to be 0.616 nM (final concentration: 0.08 nM). The resultant was diluted with a GTP assay buffer so as to be 200 nM (final concentration: 10 nM) by using [D-Ala^2, N-Me-Phe^4, Gly^5-ol]-enkephalinacetate (DAMGO, Sigma) as a μ-opioid receptor agonist. WGA Coated PVT SPA Beads (RPNQ0001, Perkinelmer) were added so as to be 20 mg/ml with a GTP assay buffer, and the resultant was suspended (final concentration: 1 mg/well). 4 μL/well of a test substance solution, 10 μL/well of a DAMGO solution, 26 μL/well of a [^35S]-GTPγS solution, […] of a suspension liquid of WGA Coated PVT SPA Beads, and 110 μL/well of the membrane fraction solution were added to a 96 well plate (1450-401, Perkinelmer), the top part of the plate was sealed, and a reaction was performed at 30° C. for 60 minutes under stirring with a plate shaker. For each measurement plate, a well to which DMSO had been added instead of the test substance, and a well to which DMSO had been added instead of the test substance and a GTP assay buffer had been added instead of the DAMGO solution were prepared. Furthermore, after the reaction was completed, the reactant was centrifuged at room temperature and 1,000 rpm for 3 minutes, and the radioactivity was measured by a microplate scintillation luminescence counter (Perkinelmer).
The IC50 value of the test substance was calculated by using Graphpad Prism 5.

[1] = Plasma concentration of test substance at ED50 value (mice, LC/MS/MS); assay type: in vivo; conditions: at the ED50 value, at time of morphine administration, oral, linear regression from two doses
Protocol: The concentration of the test substances in blood plasma was confirmed by using mice of the same week-old for the same dose as that used in the evaluation of the anti-pruritic effect. The test substance was administered by forced oral administration of an administration vehicle prepared in a similar manner to that in the evaluation of the anti-pruritic effect under a non-fasting condition. The blood samples were collected from the orbital venous plexus, within from 15 minutes after the administration of the test substance to after 180 minutes at the maximum, for multiple times including the timing at which the morphine solution was intracisternally administered, under inhalation anesthesia with diethyl ether or isoflurane using a heparin-treated hematocrit tubes. The collected blood samples were immediately ice-cooled and centrifuged at 1,800 g for 15 minutes at 4° C., and the plasma fractions were transferred and stored under freezing at −30° C. or less until measurement.
The concentrations of the test substances in plasma were measured using LC/MS/MS. Furthermore, as the measurement samples for LC/MS/MS, the supernatants obtained by adding an internal standard substance and acetonitrile in an amount within a range from 5-fold to 10-fold of the amount of the plasma to the collected plasma samples, and removing proteins therefrom, was used.

Mice serum protein = assay: in vitro; assay type: in vitro ADME; conditions: murine serum, equilibrium dialysis, 37° C., 5 to 6 hours
Protocol: (§1) The protein binding rate was determined by equilibrium dialysis method using the RED Device (8K MWCO, Rapid Equilibrium Dialysis Device, Thermo Scientific). The test substances that had been dissolved in DMSO were added to the serum that was collected from Crl: CD-1 (ICR) mice fasted overnight, so that the final concentration of DMSO became 1% (v/v). The serum to which the test substance had been added was added to the inner side of the dialysis membrane of the RED Device, and PBS (phosphate buffer saline, pH 7.4) containing 0.01% (v/v) Tween 80 was added to the outside in accordance with the method for using the RED Device and incubated at 37° C. for 5 to 6 hours with ellipsoidal shaking at 100 rpm so that the concentration of the unbound test substance in the serum and the concentration of the test substance in the PBS reached equilibrium. After the incubation was completed, the respective solutions were collected and stored under freezing at −60° C. or less as measurement samples. The proteins were removed from the measurement sample by adding acetonitrile in an amount of 5-fold or more of the amount of the internal standard substance and the serum sample, and the supernatants were measured by LC/MS/MS (liquid chromatograph—triple quadrupole mass spectrometer). The serum samples were measured after suitably diluting with distilled water as necessary.
(§2) A: the concentration of the test substance in the PBS sample
(§3) B: the concentration of the test substance in the serum sample

[2] = system: pruritus mice model to which morphine had been intracisternally administered; assay: Anti-pruritic effect in pruritus mice model to which morphine had been intracisternally administered; assay type: in vivo; conditions: oral administration, male ICR mice, inhibition of morphine-induced scratching behavior
Protocol: As experimental animals, male ICR (Cr1j: CD1 (ICR): Charles River Japan) mice were used at 5 to 6-week old. The mice were placed in an acrylic cage (colorless and transparent, W 13.5 cm×D 9.5 cm×H 40 cm) for observing scratching behavior for 30 minutes or more to thereby allow the mice to get used to the observation environment, and the test substance solutions were forcedly orally administered to the test substance-administered groups. In addition, an administration vehicle was forcedly orally administered to the normal control group and the pathological control group. A necessary amount of the test substance was weighed and formed into a micropowder in an agate mortar, an administration vehicle, a 0.5 w/v % methyl cellulose 400 solution (Wako Pure Chemical Industries Ltd.) was added little by little, and preparation was performed by suspending or dissolving so as to give an intended concentration (from 0.025 to 3 mg/ml). The test doses were preset to suitable doses in the range in which the maximum dose is 30 mg/10 ml/kg.
Based on 30 minutes after the forced oral administration of the test substance as a criterion, the time for the intracisternal administration of morphine was suitably set up to 120 minutes after at the maximum, with consideration for the times of maximum plasma concentration of the respective test substances, in the case when the in vivo pharmacokinetics of the test substance had been confirmed in advance. Furthermore, saline was intracisternally administered to the normal control group, and the above-mentioned morphine solution was intracisternally administered to the pathogenic control group, so as to be 5 μL/site at the same time as that of the test substance group after the forced oral administration of the administration vehicle in either case.
The behavior of each mouse within 60 minutes from the intracisternal administration of the morphine solution or saline was recorded by a digital video camera that was installed immediately above the acrylic cage, the images were stored in a digital video recorder, and the number of frequency of the scratching behavior was measured. The number of frequency of the scratching behavior was measured with deeming a behavior in which the mouse raised its hindlimb, scratched the facial surface and the peripheral sites thereof, and got the hindlimb off from the body within 30 minutes from after the intracisternal administration of the morphine or saline as one time.
The anti-pruritic effect of each test substance was obtained as follows. As an inhibition ratio against the number of frequency of the scratching behavior on the pathological control group, the inhibition ratio (%) of the respective individuals and the average value thereof were calculated from the following formula, and an ED50 value was calculated based on the obtained inhibition ratio. Inhibition ratio of each individual (%)={1−(A−Vehicle)/(Morphine−Vehicle)}×100 Morphine: the average of the scratching number of the pathological control group Vehicle: the average of the scratching number of the normal control group A: the scratching number of each individual in the test substance-administered group

hERG current = hERG current (Homo sapiens (Human), UniProt Q12809); assay: cell-based
Sequence of hERG current (Q12809 whole entry): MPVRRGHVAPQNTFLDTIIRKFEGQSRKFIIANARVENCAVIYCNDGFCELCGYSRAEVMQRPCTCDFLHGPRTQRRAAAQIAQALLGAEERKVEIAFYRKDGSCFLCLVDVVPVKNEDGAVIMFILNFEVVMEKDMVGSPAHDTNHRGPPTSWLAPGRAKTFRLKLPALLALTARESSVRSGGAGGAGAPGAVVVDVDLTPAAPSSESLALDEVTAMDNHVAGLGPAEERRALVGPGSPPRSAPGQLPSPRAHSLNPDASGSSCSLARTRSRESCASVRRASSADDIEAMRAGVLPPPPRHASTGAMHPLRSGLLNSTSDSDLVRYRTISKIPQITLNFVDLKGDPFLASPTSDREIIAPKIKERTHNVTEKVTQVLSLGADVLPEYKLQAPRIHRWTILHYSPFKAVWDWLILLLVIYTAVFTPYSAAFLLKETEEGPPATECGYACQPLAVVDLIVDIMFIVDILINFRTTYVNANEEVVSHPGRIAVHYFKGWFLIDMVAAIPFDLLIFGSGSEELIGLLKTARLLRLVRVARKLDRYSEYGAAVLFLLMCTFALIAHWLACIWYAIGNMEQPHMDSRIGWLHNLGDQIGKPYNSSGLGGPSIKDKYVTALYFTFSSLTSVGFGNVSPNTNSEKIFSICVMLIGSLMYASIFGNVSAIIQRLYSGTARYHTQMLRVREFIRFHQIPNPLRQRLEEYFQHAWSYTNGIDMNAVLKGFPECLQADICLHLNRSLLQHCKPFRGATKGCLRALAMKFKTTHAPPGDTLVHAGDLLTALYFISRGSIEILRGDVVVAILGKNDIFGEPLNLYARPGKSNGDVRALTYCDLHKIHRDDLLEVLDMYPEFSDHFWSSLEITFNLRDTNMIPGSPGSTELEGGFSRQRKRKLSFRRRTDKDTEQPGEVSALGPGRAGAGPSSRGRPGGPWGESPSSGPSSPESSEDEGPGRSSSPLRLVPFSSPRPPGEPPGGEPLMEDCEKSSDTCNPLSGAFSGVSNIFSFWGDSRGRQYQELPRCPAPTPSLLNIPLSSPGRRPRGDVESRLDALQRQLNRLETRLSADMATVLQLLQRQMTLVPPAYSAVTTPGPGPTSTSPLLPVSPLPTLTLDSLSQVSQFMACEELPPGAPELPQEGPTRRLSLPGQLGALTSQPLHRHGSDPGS
Source text: A: the suppression rate (%) of the test substance in each cell
B: the average suppression rate (%) of the vehicle control group

hERG = hERG (Homo sapiens (Human), UniProt Q12809); assay: Safety margin against hERG inhibitory activity; conditions: hERG IC50×1000/{concentration in plasma at ED50×(1−protein binding rate/100)}
Protocol: In order to compare the risks of extension of QT interval prolongation in the electrocardiogram among the test substances, the safety margins against the hERG inhibitory effect were calculated. […] Therefore, the following formula was used for calculating the safety margin, and the obtained values were described in Table 7. Safety margin against hERG inhibitory effect=IC50×1000/{concentration in plasma×(1−protein binding rate/100)}
IC50: the IC50 value in a hERG inhibition assay (μM)
Plasma concentration: the plasma concentration of test substance (nM) at the ED50 value in the test for evaluating the anti-pruritic effect in the morphine model
Protein binding rate: the protein binding rate (%) in the protein binding assay in murine serum

in vitro = in vitro ADME, mice; conditions: Crl:CD-1 (ICR), mouse, pH 7.4; murine serum, equilibrium dialysis, 37° C., 5 to 6 hours; read-out: Protein binding rate (converted)
Protocol: as §1, §2, §3

With `CC[C@]1(c2cccc(NS(C)(=O)=O)c2)[C@@H]2CN(CC3(O)Cc4ccccc4C3)C[C@@H]21.CS(=O)(=O)O` [Comparative compound 1, N-(3-{(1R,5S,6r)-6-ethyl-3-[(2-hydroxy-2,3-dihydro-1H-inden-2-yl)methyl]-3-azabicyclo[3.1.0]hexan-6-yl}phenyl)methanesulfonamide methanesulfonate, reference compound] the IC50 (human μ-opioid receptor; inhibition of DAMGO (10 nM)-stimulated [35S]-GTPγS binding, human μ-opioid receptor membrane, read-out: IC50) was 0.0013 µM, the “Plasma concentration of test substance” value [1] was 157 nM and the Protein binding rate (Mice serum protein) was 93.2%. The ED50 [2] was 2.6 mg/kg.
In the case of `C[C@]1(c2cccc(NS(=O)(=O)C3CC3)c2)[C@@H]2CN(CC3(O)Cc4ccccc4C3)C[C@@H]21` [Example 17-(b), N-(3-{(1R,5S,6r)-3-[(2-hydroxy-2,3-dihydro-1H-inden-2-yl)methyl]-6-methyl-3-azabicyclo[3.1.0]hexan-6-yl}phenyl)cyclopropanesulfonamide hydrochloride], the IC50 (human μ-opioid receptor) is reported as 0.0054 µM, the “Plasma concentration of test substance” value [1] is reported as 68.2 nM and the IC50 (hERG current) is reported as 0.13 µM. For the same molecule, the Safety margin (hERG) was 48 and the ED50 ([2]; Mus musculus, read-out: ED50) was 1.5 mg/kg.
For `CC[C@]1(c2cccc(NS(=O)(=O)C3CC3)c2)[C@@H]2CN(CC3(O)Cc4ccccc4C3)C[C@@H]21` [Example 1-(a), N-(3-{(1R,5S,6r)-6-ethyl-3-[(2-hydroxy-2,3-dihydro-1H-inden-2-yl)methyl]-3-azabicyclo[3.1.0]hexan-6-yl}phenyl)cyclopropanesulfonamide], the “Plasma concentration of test substance” value [1] was 70.8 nM, the fraction unbound (in vitro) was 0.019 and the IC50 (hERG current) was 0.11 µM. The Safety margin (hERG) was 82 and the ED50 ([2]; Mus musculus, read-out: ED50) was 3.5 mg/kg.
`CC[C@]1(c2cccc(NS(=O)(=O)C3CC3)c2)[C@@H]2CN(CCCC3(OC)CCC(F)(F)CC3)C[C@@H]21` [Example 6-(b), N-(3-{(1R,5S,6r)-3-[3-(4,4-difluoro-1-methoxycyclohexyl)propyl]-6-ethyl-3-azabicyclo[3.1.0]hexan-6-yl}phenyl)cyclopropanesulfonamide hydrochloride] showed a fraction unbound (in vitro) of 0.039, an IC50 (hERG current) of 0.66 µM and an ED50 ([2]; Mus musculus, read-out: ED50) of 0.42 mg/kg.
In the case of `CC[C@]1(c2cccc(NS(=O)(=O)C3CC3)c2)[C@@H]2CN(CC3(OC)Cc4ccccc4C3)C[C@@H]21` [Example 3-(b), N-(3-{(1R,5S,6r)-6-ethyl-3-[(2-methoxy-2,3-dihydro-1H-inden-2-yl)methyl]-3-azabicyclo[3.1.0]hexan-6-yl}phenyl)cyclopropanesulfonamide hydrochloride], the IC50 (human μ-opioid receptor) is reported as 0.0036 µM, the “Plasma concentration of test substance” value [1] is reported as 48.8 nM and the IC50 (hERG current) is reported as 0.58 µM. It also gave a Safety margin (hERG) of 1980 and an ED50 ([2]; Mus musculus, read-out: ED50) of 4.2 mg/kg.
In the case of `CC[C@]1(c2cccc(NS(=O)(=O)C3CC3)c2)[C@@H]2CN(CCCN3CCC(F)(F)CC3)C[C@@H]21` [Example 7-(b), N-(3-{(1R,5S,6r)-3-[3-(4,4-difluoropiperidin-1-yl)propyl]-6-ethyl-3-azabicyclo[3.1.0]hexan-6-yl}phenyl)cyclopropanesulfonamide hydrochloride], the IC50 (human μ-opioid receptor) is reported as 0.0014 µM, the “Plasma concentration of test substance” value [1] is reported as 21.5 nM and the IC50 (hERG current) is reported as 1.2 µM. For the same molecule, the Safety margin (hERG) was 375 and the ED50 ([2]; Mus musculus, read-out: ED50) was 2.4 mg/kg.
